Measurements published in PubChem BioAssay AID248 (DTP/NCI, 2004).
Inconclusive results and toxic doses are left out. No stated cut-off is given here; in the data, active means T/C of 150% or more; inactive means T/C below 125%.

Test system: L1210 leukemia ip in BDF1 mice, survival T/C
Experiment: NCI In Vivo Anticancer Drug Screen. Data for tumor model L1210 Leukemia (intraperitoneal) in B6D2F1 (BDF1) mice
Conditions: endpoint: mean survival time, higher = longer survival
Procedure, shortened: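 Survival endpoint. Drug-treated group vs vehicle group, expressed as T divided by C. Tumor passaged by transplantation.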

[1] = dose: 100.0 mg/kg/injection, schedule: Q01DX009 (ip), vehicle: saline with Tween-80
[2] = dose: 200.0 mg/kg/injection, schedule: Q01DX009 (ip), vehicle: saline with Tween-80

Measured: T/C

CCCCCCCCCCCCNC(=O)C[n+]1cccc(C(=O)N(CC)CC)c1
inactive: dose: 12.5 mg/kg/injection, schedule: Q04DX003 (ip), vehicle: saline 92 % of control | dose: 25.0 mg/kg/injection, schedule: Q04DX003 (ip), vehicle: saline 97 % of control | dose: 50.0 mg/kg/injection, schedule: Q04DX003 (ip), vehicle: saline 97 % of control

O=C(CN1CCCCC1)Nc1cccc(C(F)(F)F)c1
inactive: dose: 100.0 mg/kg/injection, schedule: Q01DX009 (ip), vehicle: Klucel (hydroxypropylcellulose) (HPC) 99 % of control | dose: 100.0 mg/kg/injection, schedule: Q04DX003 (ip), vehicle: Klucel (hydroxypropylcellulose) (HPC) 97 % of control | dose: 200.0 mg/kg/injection, schedule: Q01DX009 (ip), vehicle: Klucel (hydroxypropylcellulose) (HPC) 100 % of control | dose: 200.0 mg/kg/injection, schedule: Q04DX003 (ip), vehicle: Klucel (hydroxypropylcellulose) (HPC) 98 % of control | dose: 400.0 mg/kg/injection, schedule: Q01DX009 (ip), vehicle: Klucel (hydroxypropylcellulose) (HPC) 100 % of control | dose: 400.0 mg/kg/injection, schedule: Q04DX003 (ip), vehicle: Klucel (hydroxypropylcellulose) (HPC) 93 % of control

COc1ccc(NC(C)=O)c(C)c1
inactive: [1] 99 % of control | dose: 100.0 mg/kg/injection, schedule: Q04DX003 (ip), vehicle: saline with Tween-80 112 % of control | [2] 96 % of control | dose: 200.0 mg/kg/injection, schedule: Q04DX003 (ip), vehicle: saline with Tween-80 119 % of control | dose: 400.0 mg/kg/injection, schedule: Q01DX009 (ip), vehicle: saline with Tween-80 103 % of control | dose: 400.0 mg/kg/injection, schedule: Q04DX003 (ip), vehicle: saline with Tween-80 96 % of control

O=C1C=C(c2ccccc2)C(O)(c2ccccc2)O1 (configuration not stated)
inactive: dose: 100.0 mg/kg/injection, schedule: Q01DX001 (ip), vehicle: saline with Tween-80 106 % of control | dose: 200.0 mg/kg/injection, schedule: Q01DX001 (ip), vehicle: saline with Tween-80 103 % of control | dose: 400.0 mg/kg/injection, schedule: Q01DX001 (ip), vehicle: saline with Tween-80 101 % of control

OCSCc1c(Cl)c(Cl)c(Cl)c(Cl)c1Cl
inactive: dose: 100.0 mg/kg/injection, schedule: Q04DX002 (ip), vehicle: Klucel (hydroxypropylcellulose) (HPC) 103 % of control | dose: 200.0 mg/kg/injection, schedule: Q04DX002 (ip), vehicle: Klucel (hydroxypropylcellulose) (HPC) 103 % of control | dose: 400.0 mg/kg/injection, schedule: Q04DX002 (ip), vehicle: Klucel (hydroxypropylcellulose) (HPC) 98 % of control

Cc1cc(OC(=O)Nc2ccccc2C(F)(F)F)cc(C)c1Cl
inactive: [1] 109 % of control | dose: 100.0 mg/kg/injection, schedule: Q04DX002 (ip), vehicle: saline with Tween-80 91 % of control | [2] 102 % of control | dose: 200.0 mg/kg/injection, schedule: Q04DX002 (ip), vehicle: saline with Tween-80 95 % of control | dose: 400.0 mg/kg/injection, schedule: Q04DX002 (ip), vehicle: saline with Tween-80 98 % of control

COC1N(C2CC(O)C(CO)O2)C(=O)NC(=O)C1(F)Br (configuration not stated)
inactive: dose: 5.0 mg/kg/injection, schedule: Q01DX009 (ip), vehicle: saline 123 % of control | dose: 10.0 mg/kg/injection, schedule: Q01DX009 (ip), vehicle: saline 112 % of control | dose: 20.0 mg/kg/injection, schedule: Q01DX009 (ip), vehicle: saline 122 % of control | dose: 20.0 mg/kg/injection, schedule: Q04DX003 (ip), vehicle: saline 105 % of control | dose: 40.0 mg/kg/injection, schedule: Q04DX003 (ip), vehicle: saline 102 % of control | dose: 50.0 mg/kg/injection, schedule: Q01DX009 (ip), vehicle: saline 103 % of control | dose: 80.0 mg/kg/injection, schedule: Q04DX003 (ip), vehicle: saline 117 % of control | dose: 100.0 mg/kg/injection, schedule: Q01DX009 (ip), vehicle: saline 98 % of control | dose: 160.0 mg/kg/injection, schedule: Q04DX003 (ip), vehicle: saline 108 % of control | dose: 200.0 mg/kg/injection, schedule: Q01DX009 (ip), vehicle: saline 102 % of control | dose: 400.0 mg/kg/injection, schedule: Q01DX009 (ip), vehicle: saline 94 % of control
